Reference: ChEMBL document CHEMBL5360644, “Structure-Activity Relationship Studies of 2,4,5-Trisubstituted Pyrimidine Derivatives Leading to the Identification of a Novel and Potent Sirtuin 5 Inhibitor against Sepsis-Associated Acute Kidney Injury” (J Med Chem, 2023)
*1 amine or outer side, *2 acyl side, *3 side chain or, on linkers, in order; H or OH if unused. Where a SMILES comes first, the peptide text is derived from it. The star is where a group is joined. AMC = Cc1cc(=O)oc2cc(N*)ccc12; Suc = O=C(CCC(=O)[*:2])[*:1]

Tests used:
[1] = biological target: T1, NAD-dependent protein deacylase sirtuin-5, mitochondrial (Homo sapiens, UniProt Q9NXA8); assay: Inhibition of human SIRT5 (34 to 269 residues) using Ac-Leu-Gly-Ser-Lys (Su)-AMC as fluorogenic substrate in presence of NAD+
Target sequence in this assay (Q9NXA8 whole entry, the tested form may be a part): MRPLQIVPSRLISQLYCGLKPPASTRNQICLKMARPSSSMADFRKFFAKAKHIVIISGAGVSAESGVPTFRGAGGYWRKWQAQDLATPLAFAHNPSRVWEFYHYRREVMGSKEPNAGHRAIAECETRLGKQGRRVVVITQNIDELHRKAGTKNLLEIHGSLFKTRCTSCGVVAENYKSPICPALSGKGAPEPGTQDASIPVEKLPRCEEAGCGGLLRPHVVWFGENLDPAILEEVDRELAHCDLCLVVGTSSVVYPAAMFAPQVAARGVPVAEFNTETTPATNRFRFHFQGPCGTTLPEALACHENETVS

[2] = biological target: T1, NAD-dependent protein deacylase sirtuin-5, mitochondrial; assay: Binding affinity to human SIRT5 (34 to 269 residues) assessed as thermal stabilization by measuring change in melting temperature at 60 uM incubated for 10 mins in presence of NAD+ by SYPRO orange dye based thermal shift assay
Target sequence in this assay (Q9NXA8 37-310 limits assumed): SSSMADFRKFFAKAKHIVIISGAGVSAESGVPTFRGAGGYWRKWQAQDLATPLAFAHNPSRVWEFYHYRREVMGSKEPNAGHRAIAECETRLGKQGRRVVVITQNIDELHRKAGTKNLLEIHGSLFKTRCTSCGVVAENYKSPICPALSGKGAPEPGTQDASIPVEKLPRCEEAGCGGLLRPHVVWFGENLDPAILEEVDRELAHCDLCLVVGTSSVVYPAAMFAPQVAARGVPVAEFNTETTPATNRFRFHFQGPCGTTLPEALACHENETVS

[3] = biological target: T1, NAD-dependent protein deacylase sirtuin-5, mitochondrial; assay: Binding affinity to human SIRT5 (34 to 269 residues) assessed as thermal stabilization by measuring melting temperature at 60 uM incubated for 10 mins in presence of NAD+ by SYPRO orange dye based thermal shift assay (reference value: 66.32 degreeC)
Target sequence in this assay (Q9NXA8 37-310 limits assumed): as above

[4] = biological target: T2, NAD-dependent protein deacetylase sirtuin-2 (Homo sapiens, UniProt Q8IXJ6); assay: Inhibition of recombinant SIRT2 (unknown origin) using Ac-Glu-Thr-Asp-Lys (Dec)-AMC as substrate
T2 sequence (Q8IXJ6 whole entry): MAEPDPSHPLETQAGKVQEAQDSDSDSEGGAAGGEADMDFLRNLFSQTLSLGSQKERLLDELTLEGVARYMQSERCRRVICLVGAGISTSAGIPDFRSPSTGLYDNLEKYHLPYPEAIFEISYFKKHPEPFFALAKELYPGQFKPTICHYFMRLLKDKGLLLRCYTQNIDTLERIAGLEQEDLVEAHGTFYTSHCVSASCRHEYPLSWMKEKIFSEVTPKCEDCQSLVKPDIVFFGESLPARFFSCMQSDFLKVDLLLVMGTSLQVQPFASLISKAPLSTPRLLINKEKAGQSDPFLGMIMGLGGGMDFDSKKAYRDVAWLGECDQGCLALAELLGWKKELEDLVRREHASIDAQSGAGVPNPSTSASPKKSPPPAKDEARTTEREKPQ

| Compound | IC50 [1] | other results |
| --- | --- | --- |
| O=C(O)CCNC(=S)NCCCNc1nc(Nc2ccccc2Cl)ncc1C(=O)N1CCCC1 | 21.5 µM |  |
| O=C(O)CCNC(=S)NCCCNc1nc(Nc2ccccc2Cl)ncc1C(=O)N[C@@H]1C[C@H]1c1ccccc1 | 2.54 µM |  |
| CC(=O)N[C@@H](CC(C)C)C(=O)NCC(=O)N[C@@H](CO)C(=O)N[C@@H](CCCCNC(=O)CCC(=O)O)C(=O)Nc1ccc2c(C)cc(=O)oc2c1 (Ac-LGSK(Suc)-{AMC}) |  | ΔTm [2]: 0.97 °C; Tm [3]: 67.3 °C |
| O=C(O)CCNC(=S)NCCCNc1nc(Nc2ccccc2Cl)ncc1C(=O)N1CC[C@H](c2ccccc2)C1 | 0.31 µM | IC50 [4]: 39.6 µM |
| O=C(O)CCNC(=S)NCCCNc1nc(Nc2ccccc2Cl)ncc1C(=O)NCCc1cc2ccccc2[nH]1 | 1.43 µM |  |
| C[C@@H](NC(=O)c1cnc(Nc2ccccc2Cl)nc1NCCCNC(=S)NCCC(=O)O)c1ccccc1 | 1.08 µM |  |
| CC[C@@H](NC(=O)c1cnc(Nc2ccccc2Cl)nc1NCCCNC(=S)NCCC(=O)O)c1ccccc1 | 0.58 µM |  |
| C[C@H](NC(=O)c1cnc(Nc2ccccc2Cl)nc1NCCCNC(=S)NCCC(=O)O)c1ccccc1 | 1.74 µM |  |
| CC(CCc1ccccc1)NC(=O)c1cnc(Nc2ccccc2Cl)nc1NCCCNC(=S)NCCC(=O)O (stereo not given) | 1.6 µM |  |
| O=C(O)CCNC(=S)NCCCNc1nc(Nc2ccccc2Cl)ncc1C(=O)Nc1ccccc1-c1ccccc1 | 4.84 µM |  |
| O=C(O)CCNC(=S)NCCCNc1nc(Nc2ccccc2Cl)ncc1C(=O)N1CCC(c2ccccc2)CC1 | 3.54 µM |  |
| O=C(O)CCNC(=S)NCCCNc1nc(Nc2ccccc2Cl)ncc1C(=O)N1CCCC1c1ccccc1 (stereo not given) | 27.3 µM |  |
| O=C(O)CCNC(=S)NCCCNc1nc(Nc2ccccc2Cl)ncc1C(=O)N[C@H]1c2ccccc2C[C@H]1O | 4.18 µM |  |
| O=C(O)CCNC(=S)NCCCNc1nc(Nc2ccccc2Cl)ncc1C(=O)N1CCCC(c2ccccc2)C1 (stereo not given) | 3.66 µM |  |
| O=C(O)CCNC(=S)NCCCNc1nc(Nc2ccccc2Cl)ncc1C(=O)Nc1ccc2ccccc2c1 | 5.15 µM |  |
| CC[C@H](NC(=O)c1cnc(Nc2ccccc2Cl)nc1NCCCNC(=S)NCCC(=O)O)c1ccccc1 | 3.72 µM |  |

| Compound | IC50 [1] | other results |
| --- | --- | --- |
| O=C(O)CCNC(=S)NCCCNc1nc(Nc2ccccc2Cl)ncc1C(=O)NCc1ccccc1 | 1.11 µM |  |
| COc1ccccc1NC(=O)c1cnc(Nc2ccccc2Cl)nc1NCCCNC(=S)NCCC(=O)O | 5.37 µM |  |
| O=C(O)CCNC(=S)NCCCNc1nc(Nc2ccccc2Cl)ncc1C(=O)Nc1cccc2ccccc12 | 2.95 µM |  |
| CC(C)(C)OC(=O)[C@@H](NC(=O)c1cnc(Nc2ccccc2Cl)nc1NCCCNC(=S)NCCC(=O)O)c1ccccc1 | 1.55 µM |  |
| Cc1ccccc1NC(=O)c1cnc(Nc2ccccc2Cl)nc1NCCCNC(=S)NCCC(=O)O | 5.45 µM |  |
| COc1cc(NC(=O)c2cnc(Nc3ccccc3Cl)nc2NCCCNC(=S)NCCC(=O)O)cc(OC)c1 | 1.54 µM |  |
| O=C(O)CCNC(=S)NCCCNc1nc(Nc2ccccc2Cl)ncc1C(=O)NC1(c2ccccc2)CC1 | 2.8 µM |  |
| O=C(O)CCNC(=S)NCCCNc1nc(Nc2ccccc2Cl)ncc1C(=O)N1CCOCC1 | 8.6 µM |  |
| O=C(O)CCNC(=S)NCCCNc1nc(Nc2ccccc2Cl)ncc1C(=O)Nc1ccccc1 | 3.18 µM |  |
| CC(C)(C)OC(=O)[C@H](NC(=O)c1cnc(Nc2ccccc2Cl)nc1NCCCNC(=S)NCCC(=O)O)c1ccccc1 | 1.82 µM |  |
| O=C(O)CCNC(=S)NCCCNc1nc(Nc2ccccc2Cl)ncc1C(=O)N[C@@H](Cc1ccccc1)C(=O)O | 1.71 µM |  |
| O=C(O)CCNC(=S)NCCCNc1nc(Nc2ccccc2Cl)ncc1C(=O)N1CCC(c2ccccc2)C1 (stereo not given) | 0.53 µM |  |
| CC(C)c1ccccc1NC(=O)c1cnc(Nc2ccccc2Cl)nc1NCCCNC(=S)NCCC(=O)O | 2.82 µM |  |
| O=C(O)CCNC(=S)NCCCNc1nc(Nc2ccccc2Cl)ncc1C(=O)N[C@@H]1C[C@H]1c1ccc(F)c(F)c1 | 1.24 µM |  |
| O=C(O)CCNC(=S)NCCCNc1nc(Nc2ccccc2Cl)ncc1C(=O)N[C@H]1CCCC[C@@H]1O | 8.95 µM |  |

Continued, in another order:

| IC50 [1] | Compound | other results |
| --- | --- | --- |
| 9.56 µM | O=C(O)CCNC(=S)NCCCNc1nc(Nc2ccccc2Cl)ncc1C(=O)NC1CC1 |  |
| 11.6 µM | CCOC(=O)c1cnc(Nc2ccc(C)cc2)nc1NCCCNC(=S)NCCC(=O)O |  |
| 1.9 µM | CCOC(=O)c1cnc(Nc2ccccc2Cl)nc1NCCCNC(=S)NCCC(=O)O |  |
| 17.1 µM | CCOC(=O)c1cnc(Nc2cccc(OC)c2)nc1NCCCNC(=S)NCCC(=O)O |  |
| 2.7 µM | CCOC(=O)c1cnc(Nc2ccc(Br)cc2C)nc1NCCCNC(=S)NCCC(=O)O |  |
| 13.4 µM | CCOC(=O)c1cnc(Nc2cccc(Cl)c2)nc1NCCCNC(=S)NCCC(=O)O |  |
| 7.83 µM | CCCNC(=O)c1cnc(Nc2ccccc2Cl)nc1NCCCNC(=S)NCCC(=O)O |  |
| 3.98 µM | CCOC(=O)c1cnc(Nc2ccccc2-c2ccccc2)nc1NCCCNC(=S)NCCC(=O)O |  |
| 1.64 µM | O=C(O)CCNC(=S)NCCCNc1nc(Nc2ccccc2Cl)ncc1C(=O)O |  |
| 16.9 µM | CCOC(=O)c1cnc(Nc2cccc(C)c2)nc1NCCCNC(=S)NCCC(=O)O |  |
| 2.77 µM | CC(C)OC(=O)c1cnc(Nc2ccccc2Cl)nc1NCCCNC(=S)NCCC(=O)O |  |
| 5.87 µM | CCOC(=O)c1cnc(Nc2ccccc2F)nc1NCCCNC(=S)NCCC(=O)O |  |
| 2.82 µM | CCOC(=O)c1cnc(Nc2c(F)cccc2F)nc1NCCCNC(=S)NCCC(=O)O |  |
| 7.93 µM | O=C(O)CCNC(=S)NCCCNc1nc(Nc2ccccc2Cl)ncc1C(=O)NC1CCC1 |  |
| 7.52 µM | CCOC(=O)c1cnc(Nc2ccc(Br)cc2)nc1NCCCNC(=S)NCCC(=O)O |  |
| 2.39 µM | CCOC(=O)c1cnc(Nc2cccc(F)c2Cl)nc1NCCCNC(=S)NCCC(=O)O |  |

| IC50 [1] | Compound | other results |
| --- | --- | --- |
| 2.38 µM | CCOC(=O)c1cnc(Nc2cccc(F)c2C)nc1NCCCNC(=S)NCCC(=O)O |  |
| 9.4 µM | CCOC(=O)c1cnc(Nc2ccc(Cl)cc2)nc1NCCCNC(=S)NCCC(=O)O |  |
| 3.16 µM | CCOC(=O)c1cnc(Nc2c(C)cccc2C)nc1NCCCNC(=S)NCCC(=O)O |  |
| 3.53 µM | CCOC(=O)c1cnc(Nc2ccccc2C)nc1NCCCNC(=S)NCCC(=O)O |  |
| 10.7 µM | CCOC(=O)c1cnc(Nc2ccccc2OC)nc1NCCCNC(=S)NCCC(=O)O |  |
| 7.67 µM | CCOC(=O)c1cnc(Nc2ccccc2)nc1NCCCNC(=S)NCCC(=O)O |  |
| 2.3 µM | CCOC(=O)c1cnc(Nc2cccc(C)c2Br)nc1NCCCNC(=S)NCCC(=O)O |  |
| 3.34 µM | COC(=O)c1cnc(Nc2ccccc2Cl)nc1NCCCNC(=S)NCCC(=O)O |  |
| 3.48 µM | CCOC(=O)c1cnc(Nc2cccc(Br)c2C)nc1NCCCNC(=S)NCCC(=O)O |  |
| 6.72 µM | CC(C)CNC(=O)c1cnc(Nc2ccccc2Cl)nc1NCCCNC(=S)NCCC(=O)O |  |
| 9.57 µM | CCOC(=O)c1cnc(Nc2cccc(F)c2)nc1NCCCNC(=S)NCCC(=O)O |  |
| 10.5 µM | CCOC(=O)c1cnc(Nc2ccc(OC)cc2)nc1NCCCNC(=S)NCCC(=O)O |  |
| 22 µM | CCOC(=O)c1cnc(Nc2cccc(Br)c2)nc1NCCCNC(=S)NCCC(=O)O |  |
| 7.54 µM | CCOC(=O)c1cnc(Nc2ccc(F)cc2)nc1NCCCNC(=S)NCCC(=O)O |  |
| 6.9 µM | CCOC(=O)c1cnc(Nc2cc(OC)cc(OC)c2)nc1NCCCNC(=S)NCCC(=O)O |  |
| 4.06 µM | CCOC(=O)c1cnc(Nc2ccccc2Br)nc1NCCCNC(=S)NCCC(=O)O |  |
